# Several values for one entry are separate records, joined by “and”; a condition that tells them apart may be missing. Equal values may be shown once.
# Experiments:
# [1] = biological target: T1, Poly [ADP-ribose] polymerase tankyrase-2 (Homo sapiens, UniProt Q9H2K2)
# T1 sequence (Q9H2K2 whole entry): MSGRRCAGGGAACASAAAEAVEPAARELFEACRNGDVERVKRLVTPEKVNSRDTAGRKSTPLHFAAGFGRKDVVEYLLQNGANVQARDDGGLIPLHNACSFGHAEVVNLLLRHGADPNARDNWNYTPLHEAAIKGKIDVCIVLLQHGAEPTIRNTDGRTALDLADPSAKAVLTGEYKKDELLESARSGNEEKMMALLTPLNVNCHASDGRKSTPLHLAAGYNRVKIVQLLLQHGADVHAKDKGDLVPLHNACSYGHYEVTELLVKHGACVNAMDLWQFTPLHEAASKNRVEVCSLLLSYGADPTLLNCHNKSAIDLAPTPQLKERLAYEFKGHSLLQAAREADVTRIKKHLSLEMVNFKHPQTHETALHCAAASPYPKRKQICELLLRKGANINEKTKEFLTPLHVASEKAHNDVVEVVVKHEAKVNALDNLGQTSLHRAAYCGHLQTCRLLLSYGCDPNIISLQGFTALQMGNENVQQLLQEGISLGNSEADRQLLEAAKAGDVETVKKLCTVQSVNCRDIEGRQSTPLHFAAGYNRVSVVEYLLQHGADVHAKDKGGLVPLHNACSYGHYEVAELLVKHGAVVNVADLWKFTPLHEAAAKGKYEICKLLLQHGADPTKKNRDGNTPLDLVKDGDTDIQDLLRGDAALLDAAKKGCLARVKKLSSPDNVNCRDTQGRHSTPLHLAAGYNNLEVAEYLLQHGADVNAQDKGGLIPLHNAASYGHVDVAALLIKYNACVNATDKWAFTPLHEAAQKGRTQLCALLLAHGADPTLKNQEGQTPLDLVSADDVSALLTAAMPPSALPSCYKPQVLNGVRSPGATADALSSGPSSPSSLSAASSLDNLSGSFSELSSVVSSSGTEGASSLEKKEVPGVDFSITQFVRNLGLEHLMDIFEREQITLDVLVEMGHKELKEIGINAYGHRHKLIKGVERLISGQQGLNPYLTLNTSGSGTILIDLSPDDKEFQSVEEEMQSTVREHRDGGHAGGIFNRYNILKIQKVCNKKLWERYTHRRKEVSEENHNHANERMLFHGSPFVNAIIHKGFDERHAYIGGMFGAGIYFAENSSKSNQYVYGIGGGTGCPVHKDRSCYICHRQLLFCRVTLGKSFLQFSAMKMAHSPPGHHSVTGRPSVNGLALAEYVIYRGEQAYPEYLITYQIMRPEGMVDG
# Description: Inhibition of human TNKS2 (956 to 1161 and 873 to 1161) using 500 nM NAD substrate after 20 mins incubation by fluorescence assay
# [2] = tested on: HEK293; assay: Cytotoxicity against HEK293 cells assessed as cell viability at 2.5 to 10 uM; assay type: cell-based; details: human, hek293, 10 µM
# [3] = biological target: T2, Poly [ADP-ribose] polymerase tankyrase-1 (Homo sapiens, UniProt O95271); assay: Inhibition of human TNKS1 (1030 to 1317) using NAD substrate after 20 mins incubation by fluorescence assay
# T2 sequence (O95271 whole entry): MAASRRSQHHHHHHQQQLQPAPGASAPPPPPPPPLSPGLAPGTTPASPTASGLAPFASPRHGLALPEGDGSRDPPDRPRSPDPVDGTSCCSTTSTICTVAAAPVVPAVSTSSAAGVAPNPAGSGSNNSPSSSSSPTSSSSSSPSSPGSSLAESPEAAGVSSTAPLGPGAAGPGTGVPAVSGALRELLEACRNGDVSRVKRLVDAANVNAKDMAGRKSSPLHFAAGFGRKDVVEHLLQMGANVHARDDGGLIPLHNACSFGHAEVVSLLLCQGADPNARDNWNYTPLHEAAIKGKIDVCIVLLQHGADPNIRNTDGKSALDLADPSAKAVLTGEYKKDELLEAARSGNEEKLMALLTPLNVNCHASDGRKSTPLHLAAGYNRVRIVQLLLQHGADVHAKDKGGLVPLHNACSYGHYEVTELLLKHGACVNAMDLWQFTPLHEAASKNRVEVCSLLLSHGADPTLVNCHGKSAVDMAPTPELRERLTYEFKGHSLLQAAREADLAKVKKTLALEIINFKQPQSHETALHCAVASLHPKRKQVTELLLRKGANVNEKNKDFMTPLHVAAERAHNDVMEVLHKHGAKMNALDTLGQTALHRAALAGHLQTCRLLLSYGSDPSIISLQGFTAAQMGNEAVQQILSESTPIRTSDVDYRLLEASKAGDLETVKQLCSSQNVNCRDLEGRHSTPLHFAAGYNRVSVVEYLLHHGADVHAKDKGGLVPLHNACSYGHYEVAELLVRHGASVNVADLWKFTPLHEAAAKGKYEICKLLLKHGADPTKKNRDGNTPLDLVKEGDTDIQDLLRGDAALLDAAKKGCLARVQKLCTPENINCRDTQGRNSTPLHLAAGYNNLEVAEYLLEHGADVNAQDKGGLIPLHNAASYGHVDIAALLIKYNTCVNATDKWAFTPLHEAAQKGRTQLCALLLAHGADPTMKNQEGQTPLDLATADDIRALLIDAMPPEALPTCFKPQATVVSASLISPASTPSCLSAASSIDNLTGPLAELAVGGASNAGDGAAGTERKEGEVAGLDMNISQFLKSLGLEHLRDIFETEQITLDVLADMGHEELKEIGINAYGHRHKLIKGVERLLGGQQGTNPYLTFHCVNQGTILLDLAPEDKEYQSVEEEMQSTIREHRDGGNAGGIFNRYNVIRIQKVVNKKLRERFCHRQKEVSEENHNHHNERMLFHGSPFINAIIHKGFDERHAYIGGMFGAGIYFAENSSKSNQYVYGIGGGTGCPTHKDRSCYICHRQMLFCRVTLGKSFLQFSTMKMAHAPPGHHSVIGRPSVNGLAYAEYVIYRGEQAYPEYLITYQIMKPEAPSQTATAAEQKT
# [4] = biological target: T3, Protein mono-ADP-ribosyltransferase PARP15 (Homo sapiens, UniProt Q460N3); assay: Inhibition of human ARTD7 (460 to 656) using 250 nM NAD substrate after 2 hrs incubation
# T3 sequence (Q460N3 whole entry): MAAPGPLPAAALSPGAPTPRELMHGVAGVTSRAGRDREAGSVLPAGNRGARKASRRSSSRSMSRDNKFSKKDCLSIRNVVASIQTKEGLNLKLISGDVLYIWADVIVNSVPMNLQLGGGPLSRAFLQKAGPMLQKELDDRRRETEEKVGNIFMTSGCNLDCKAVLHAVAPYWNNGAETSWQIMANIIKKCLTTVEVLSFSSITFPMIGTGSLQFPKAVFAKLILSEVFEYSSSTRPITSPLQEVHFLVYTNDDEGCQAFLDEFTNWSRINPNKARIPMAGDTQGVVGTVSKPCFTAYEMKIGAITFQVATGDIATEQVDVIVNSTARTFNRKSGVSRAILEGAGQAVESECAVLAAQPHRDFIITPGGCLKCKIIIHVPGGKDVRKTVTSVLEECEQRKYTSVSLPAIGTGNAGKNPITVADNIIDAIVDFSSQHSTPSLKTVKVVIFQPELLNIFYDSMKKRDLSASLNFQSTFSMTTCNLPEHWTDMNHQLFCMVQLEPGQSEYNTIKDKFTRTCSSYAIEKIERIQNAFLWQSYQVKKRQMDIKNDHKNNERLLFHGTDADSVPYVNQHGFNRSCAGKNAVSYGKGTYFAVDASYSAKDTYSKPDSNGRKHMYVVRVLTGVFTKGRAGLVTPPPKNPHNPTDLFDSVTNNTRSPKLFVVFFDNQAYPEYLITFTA
# [5] = biological target: Poly [ADP-ribose] polymerase 2 (Homo sapiens, UniProt Q9UGN5); assay: Inhibition of full-length human ARTD2 using 500 nM NAD substrate after 3 hrs incubation
# [6] = biological target: Protein mono-ADP-ribosyltransferase PARP4 (Homo sapiens, UniProt Q9UKK3); assay: Inhibition of human ARTD4 (250 to 565) using 500 nM NAD substrate after 2.5 hrs incubation
# [7] = biological target: T4, Protein mono-ADP-ribosyltransferase PARP10 (Homo sapiens, UniProt Q53GL7); assay: Inhibition of human ARTD10 (809 to 1017) using 500 nM NAD substrate after 2.5 hrs incubation
# T4 sequence (Q53GL7 whole entry): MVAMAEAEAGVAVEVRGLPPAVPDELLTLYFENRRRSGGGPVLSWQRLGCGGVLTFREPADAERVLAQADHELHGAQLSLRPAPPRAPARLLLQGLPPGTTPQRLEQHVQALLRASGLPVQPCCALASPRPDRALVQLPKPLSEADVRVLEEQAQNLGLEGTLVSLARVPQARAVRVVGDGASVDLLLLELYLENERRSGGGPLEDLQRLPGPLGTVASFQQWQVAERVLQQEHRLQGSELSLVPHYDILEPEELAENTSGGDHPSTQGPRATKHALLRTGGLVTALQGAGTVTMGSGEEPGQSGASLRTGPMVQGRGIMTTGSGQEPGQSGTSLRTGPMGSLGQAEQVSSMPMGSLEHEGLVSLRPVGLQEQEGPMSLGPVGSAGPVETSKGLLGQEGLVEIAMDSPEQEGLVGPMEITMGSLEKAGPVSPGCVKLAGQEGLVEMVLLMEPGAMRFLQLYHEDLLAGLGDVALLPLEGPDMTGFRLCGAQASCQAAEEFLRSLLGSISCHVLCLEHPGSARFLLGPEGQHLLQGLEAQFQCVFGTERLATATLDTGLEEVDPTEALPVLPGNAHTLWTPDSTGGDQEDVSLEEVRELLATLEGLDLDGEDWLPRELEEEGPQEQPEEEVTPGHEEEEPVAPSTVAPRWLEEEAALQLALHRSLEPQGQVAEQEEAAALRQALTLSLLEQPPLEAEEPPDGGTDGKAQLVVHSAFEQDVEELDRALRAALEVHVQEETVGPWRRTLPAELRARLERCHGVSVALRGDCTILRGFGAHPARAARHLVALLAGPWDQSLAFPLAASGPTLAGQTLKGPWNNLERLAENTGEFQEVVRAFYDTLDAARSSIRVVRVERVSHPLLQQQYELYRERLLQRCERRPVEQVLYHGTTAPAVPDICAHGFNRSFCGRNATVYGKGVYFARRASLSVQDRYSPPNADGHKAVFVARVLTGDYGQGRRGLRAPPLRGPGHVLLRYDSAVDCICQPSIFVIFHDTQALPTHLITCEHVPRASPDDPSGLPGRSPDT
# [8] = biological target: T4, Protein mono-ADP-ribosyltransferase PARP10; assay: Inhibition of human ARTD10 (809 to 1017) using 500 nM NAD substrate at 10 uM after 2.5 hrs incubation
# [9] = biological target: T5, Protein mono-ADP-ribosyltransferase PARP3 (Homo sapiens, UniProt Q9Y6F1); assay: Inhibition of full-length human ARTD3 using 500 nM NAD substrate after 1 hrs incubation
# T5 sequence (Q9Y6F1 whole entry): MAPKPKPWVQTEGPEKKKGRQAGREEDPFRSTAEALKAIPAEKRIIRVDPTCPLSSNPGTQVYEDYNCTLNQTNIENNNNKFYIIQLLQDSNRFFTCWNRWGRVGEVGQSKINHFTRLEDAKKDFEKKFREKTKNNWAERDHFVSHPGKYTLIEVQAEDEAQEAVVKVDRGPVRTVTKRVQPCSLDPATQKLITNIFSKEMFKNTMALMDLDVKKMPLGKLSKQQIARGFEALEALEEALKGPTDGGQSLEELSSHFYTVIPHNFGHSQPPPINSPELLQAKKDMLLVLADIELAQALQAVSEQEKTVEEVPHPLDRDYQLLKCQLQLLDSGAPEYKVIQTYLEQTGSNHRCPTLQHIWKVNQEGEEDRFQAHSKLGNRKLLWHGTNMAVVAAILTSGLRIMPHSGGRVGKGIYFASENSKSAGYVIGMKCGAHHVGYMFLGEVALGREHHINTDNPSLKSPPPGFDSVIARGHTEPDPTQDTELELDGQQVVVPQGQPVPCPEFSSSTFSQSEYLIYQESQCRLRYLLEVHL
# [10] = biological target: Poly [ADP-ribose] polymerase 1 (Homo sapiens, UniProt P09874); assay: Inhibition of full-length human ARTD1 using 500 nM NAD substrate after 1 hr incubation
# [11] = biological target: T3, Protein mono-ADP-ribosyltransferase PARP15; assay: Inhibition of human ARTD7 (460 to 656) using 250 nM NAD substrate at 10 uM after 2 hrs incubation
# Protein mono-ADP-ribosyltransferase PARP4, sequence (Q9UKK3 whole entry): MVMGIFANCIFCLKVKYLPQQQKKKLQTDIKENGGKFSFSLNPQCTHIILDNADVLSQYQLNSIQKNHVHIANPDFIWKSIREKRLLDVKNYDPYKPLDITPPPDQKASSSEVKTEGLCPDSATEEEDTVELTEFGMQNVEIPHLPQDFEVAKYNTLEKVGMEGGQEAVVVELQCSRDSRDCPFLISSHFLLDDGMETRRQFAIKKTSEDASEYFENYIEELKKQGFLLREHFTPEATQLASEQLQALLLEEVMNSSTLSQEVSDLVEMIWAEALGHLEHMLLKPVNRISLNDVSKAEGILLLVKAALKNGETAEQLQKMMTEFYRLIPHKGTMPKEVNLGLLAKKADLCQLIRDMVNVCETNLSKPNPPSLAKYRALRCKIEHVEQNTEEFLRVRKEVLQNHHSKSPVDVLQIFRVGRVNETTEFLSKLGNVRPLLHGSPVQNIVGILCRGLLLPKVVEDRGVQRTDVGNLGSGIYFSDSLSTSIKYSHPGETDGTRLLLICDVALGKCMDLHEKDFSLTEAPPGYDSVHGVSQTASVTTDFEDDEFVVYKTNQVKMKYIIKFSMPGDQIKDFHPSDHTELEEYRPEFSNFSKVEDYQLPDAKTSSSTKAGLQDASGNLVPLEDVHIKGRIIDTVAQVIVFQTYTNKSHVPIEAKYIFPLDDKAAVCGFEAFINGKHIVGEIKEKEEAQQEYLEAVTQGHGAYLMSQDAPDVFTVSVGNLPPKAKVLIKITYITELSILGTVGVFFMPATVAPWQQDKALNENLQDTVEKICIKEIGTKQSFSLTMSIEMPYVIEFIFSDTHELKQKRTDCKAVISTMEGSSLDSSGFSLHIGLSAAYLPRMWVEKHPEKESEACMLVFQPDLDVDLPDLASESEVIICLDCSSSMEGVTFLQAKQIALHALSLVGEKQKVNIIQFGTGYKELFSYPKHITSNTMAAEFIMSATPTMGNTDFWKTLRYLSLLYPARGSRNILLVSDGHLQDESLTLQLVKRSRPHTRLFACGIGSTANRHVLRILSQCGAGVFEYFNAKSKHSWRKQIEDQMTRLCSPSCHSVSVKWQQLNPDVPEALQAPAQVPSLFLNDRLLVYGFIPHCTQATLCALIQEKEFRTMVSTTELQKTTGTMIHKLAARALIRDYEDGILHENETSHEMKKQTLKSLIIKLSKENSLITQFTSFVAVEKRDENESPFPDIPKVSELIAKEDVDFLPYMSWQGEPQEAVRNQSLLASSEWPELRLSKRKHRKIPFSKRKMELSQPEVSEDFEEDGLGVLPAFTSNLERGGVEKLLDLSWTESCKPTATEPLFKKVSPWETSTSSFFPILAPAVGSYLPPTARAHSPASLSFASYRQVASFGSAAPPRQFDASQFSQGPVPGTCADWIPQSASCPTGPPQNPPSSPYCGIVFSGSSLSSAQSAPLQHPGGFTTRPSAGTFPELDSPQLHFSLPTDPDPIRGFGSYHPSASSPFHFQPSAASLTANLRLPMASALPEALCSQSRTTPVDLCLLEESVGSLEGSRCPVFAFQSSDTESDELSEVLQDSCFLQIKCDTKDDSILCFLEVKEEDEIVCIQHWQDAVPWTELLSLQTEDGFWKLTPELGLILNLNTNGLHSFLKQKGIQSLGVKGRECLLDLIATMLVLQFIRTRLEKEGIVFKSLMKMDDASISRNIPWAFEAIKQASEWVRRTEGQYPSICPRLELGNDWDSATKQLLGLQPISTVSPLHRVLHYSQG
# Poly [ADP-ribose] polymerase 2, sequence (Q9UGN5 whole entry): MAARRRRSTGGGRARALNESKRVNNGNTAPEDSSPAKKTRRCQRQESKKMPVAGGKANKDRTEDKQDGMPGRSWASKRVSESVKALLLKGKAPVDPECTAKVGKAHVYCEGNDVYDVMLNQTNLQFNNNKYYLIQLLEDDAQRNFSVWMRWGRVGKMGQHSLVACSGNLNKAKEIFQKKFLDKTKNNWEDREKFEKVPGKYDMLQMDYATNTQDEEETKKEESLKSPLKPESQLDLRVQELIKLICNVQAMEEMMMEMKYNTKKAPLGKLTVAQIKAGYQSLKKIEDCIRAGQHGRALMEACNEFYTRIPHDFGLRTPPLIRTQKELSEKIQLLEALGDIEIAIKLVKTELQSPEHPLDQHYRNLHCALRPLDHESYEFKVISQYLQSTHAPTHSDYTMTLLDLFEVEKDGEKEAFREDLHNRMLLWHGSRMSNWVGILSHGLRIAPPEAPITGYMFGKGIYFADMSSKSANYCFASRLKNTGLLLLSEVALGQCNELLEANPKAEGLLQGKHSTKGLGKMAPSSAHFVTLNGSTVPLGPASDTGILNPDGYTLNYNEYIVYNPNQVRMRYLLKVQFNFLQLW
# Poly [ADP-ribose] polymerase 1, sequence (P09874 whole entry): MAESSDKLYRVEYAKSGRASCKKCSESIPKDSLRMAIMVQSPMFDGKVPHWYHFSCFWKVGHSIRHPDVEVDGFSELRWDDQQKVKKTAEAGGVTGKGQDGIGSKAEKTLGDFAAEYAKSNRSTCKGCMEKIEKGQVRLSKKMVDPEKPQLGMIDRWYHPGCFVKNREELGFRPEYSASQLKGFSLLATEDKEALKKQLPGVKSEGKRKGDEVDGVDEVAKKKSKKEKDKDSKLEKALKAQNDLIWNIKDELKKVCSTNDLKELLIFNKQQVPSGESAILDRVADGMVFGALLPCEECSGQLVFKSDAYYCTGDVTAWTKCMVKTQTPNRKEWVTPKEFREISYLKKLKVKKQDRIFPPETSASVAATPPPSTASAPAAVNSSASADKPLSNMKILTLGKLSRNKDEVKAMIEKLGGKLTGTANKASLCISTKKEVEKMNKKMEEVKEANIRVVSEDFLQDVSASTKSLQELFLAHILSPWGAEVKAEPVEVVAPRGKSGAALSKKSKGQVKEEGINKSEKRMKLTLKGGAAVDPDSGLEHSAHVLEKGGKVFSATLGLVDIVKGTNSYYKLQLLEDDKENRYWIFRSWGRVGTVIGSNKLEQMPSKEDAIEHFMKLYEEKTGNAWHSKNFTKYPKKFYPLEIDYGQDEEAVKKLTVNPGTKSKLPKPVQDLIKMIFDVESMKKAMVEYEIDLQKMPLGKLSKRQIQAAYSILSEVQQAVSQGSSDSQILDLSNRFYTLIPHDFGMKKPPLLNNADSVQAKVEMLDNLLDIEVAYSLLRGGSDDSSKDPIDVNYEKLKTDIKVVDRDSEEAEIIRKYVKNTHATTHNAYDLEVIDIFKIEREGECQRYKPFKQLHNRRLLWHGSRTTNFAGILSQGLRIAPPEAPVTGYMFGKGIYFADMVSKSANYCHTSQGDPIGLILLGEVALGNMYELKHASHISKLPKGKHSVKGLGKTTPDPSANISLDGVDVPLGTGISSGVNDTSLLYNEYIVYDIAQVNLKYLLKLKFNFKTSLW
Structure (SMILES),IC50 [1],IC50 [3] [µM],IC50 [5] [µM],IC50 [6] [µM],Activity [2],other results
O=C1NC(c2ccccc2Cl)Nc2ccccc21 (centres undefined),31.2 µM,–,–,–,–,–
O=C1NC(c2cccc(OCc3ccccc3)c2)Nc2ccccc21 (centres undefined),7.3 µM and 7.24 µM,–,–,–,–,–
O=c1[nH]c(N2CCN(Cc3ccncc3)CC2)nc2c1CCCC2,–,0.37,4.2,33,Non-toxic,IC50 [4]: > 10 µM; IC50 [7]: 5.4 µM
CN1CCN(c2nc3c(c(=O)[nH]2)CCCC3)CC1,–,6.3,3.6,17,Non-toxic,IC50 [4]: > 10 µM; IC50 [7]: > 10 µM
O=c1[nH]c(N2CCNCC2)nc2c1CCO2,> 100 µM,–,–,–,–,–
O=C1NC(c2ccccc2Cl)Nc2ncccc21 (centres undefined),140 µM,–,–,–,–,–

# Second part, led by results:
IC50 [1],IC50 [3] [µM],IC50 [5] [µM],IC50 [6] [µM],Structure (SMILES),Activity [2],other results
0.99 µM and 1 µM,–,–,–,COc1ccc(C2NC(=O)c3ccccc3N2)cc1 (centres undefined),–,–
0.41 µM and 0.417 µM,–,–,–,O=C1NC(c2ccc(Cl)cc2)Nc2ccccc21 (centres undefined),–,–
0.72 µM and 0.724 µM,–,–,–,CCc1c(C)nc(N2CCN(c3ccccc3F)CC2)nc1O,–,–
6.6 µM,–,–,–,CN1c2ncccc2C(=O)NC1c1ccc(NC(=O)C2CCOCC2)cc1 (centres undefined),–,–
230 µM,–,–,–,O=C1NC(c2cccc(OCc3ccccc3)c2)Nc2ncccc21 (centres undefined),–,–
0.23 µM and 0.234 µM,1.1,> 100,> 100,CC(C)c1ccc(C2NC(=O)c3ccccc3N2)cc1 (centres undefined),Non-toxic,IC50 [8]: > 10 µM; IC50 [9]: 50 µM; IC50 [10]: > 100 µM; IC50 [11]: > 10 µM
0.15 µM and 0.155 µM,0.62,> 100,> 100,CC(C)(C)c1ccc(C2NC(=O)c3ccccc3N2)cc1 (centres undefined),Non-toxic,IC50 [8]: > 10 µM; IC50 [9]: 34 µM; IC50 [10]: > 100 µM; IC50 [11]: > 10 µM
